Test system: SH-SY5Y cells
Assay: Pretreatment with peptides before MG stress, MTT cell viability
Type: cell-based, human
Conditions: 4 h pretreatment 1 × 10^−7 M, then 1.2 mM MG 16 h, n = 3, octuplicates
Procedure: Figure 5 PrRP31 and its analog increased cell viability during the MG-induced stress. Pre-treatment for 4 h with PrRP31 and palm^11-PrRP31 at a concentration of: (a) 1 × 10^−5 M; or (b) 1 × 10^−7 M, followed by exposure to 1.2 mM MG for 16 h in SH-SY5Y cells. Pre-treatment for 4 h with PrRP31 and palm^11-PrRP31 at a concentration of: (c) 1 × 10^−5 M; (d) 1 × 10^−7 M in SH-SY5Y cells; or (e) 1 × 10^−5 M in rat primary neuronal culture, followed by exposure to 0.6 mM MG for 16 h in SH-SY5Y cells. MG toxicity was measured with MTT assay. Data are presented as the means ± SEM as a percentage of control cells treated with vehicle analyzed by a Student’s t-test vs. 0.6 mM MG # p < 0.5, ## p < 0.01, ### p < 0.001, #### p < 0.0001 (n = 3, each sample in octuplicates). Control vs. 0.6 mM MG analyzed by a Student´s t-test, * p < 0.5, ** p < 0.01.
The MTT test was used to measure cell viability. The MTT reagent was dissolved in RPMI-1640 without phenol red. Cells were incubated for 2 h with a 10% solution of MTT at 37 °C. Living cells converted soluble MTT to insoluble formazan, which was subsequently dissolved in DMSO. The absorbance was measured at a wavelength of 560 nm.
For this assay, cells were cultured in 96-well plates at a density of 40,000 cells per well. The growth medium was exchanged for serum-free DMEM 16 h before the experiment. […]

## CC[C@H](C)[C@H](NC(=O)CNC(=O)[C@H](CCCNC(=N)N)NC(=O)[C@H](CO)NC(=O)[C@H](C)NC(=O)[C@H](Cc1ccc(O)cc1)NC(=O)[C@H](Cc1c[nH]c2ccccc12)NC(=O)[C@H](C)NC(=O)[C@@H]1CCCN1C(=O)[C@H](CC(N)=O)NC(=O)[C@@H](NC(=O)[C@H](CC(=O)O)NC(=O)[C@@H]1CCCN1C(=O)[C@@H](NC(=O)[C@H](CCCNC(=N)N)NC(=O)[C@@H](NC(=O)[C@H](CCC(=O)O)NC(=O)[C@H](CCSC)NC(=O)[C@H](CO)NC(=O)[C@H](Cc1c[nH]cn1)NC(=O)[C@H](CCCNC(=N)N)NC(=O)[C@H](Cc1c[nH]cn1)NC(=O)[C@@H](NC(=O)[C@H](CCCNC(=N)N)NC(=O)[C@@H](N)CO)[C@@H](C)O)[C@@H](C)CC)[C@@H](C)O)[C@@H](C)CC)C(=O)N[C@@H](CCCNC(=N)N)C(=O)N1CCC[C@H]1C(=O)N[C@H](C(=O)NCC(=O)N[C@@H](CCCNC(=N)N)C(=O)N[C@@H](Cc1ccccc1)C(N)=O)C(C)C [PrRP31]
  cell viability (% of control cells): not

Source: article PMC7503370, “Cellular Signaling and Anti-Apoptotic Effects of Prolactin-Releasing Peptide and Its Analog on SH-SY5Y Cells” (International Journal of Molecular Sciences, 2020)
